Source: patent publication US20140275128A1, “METHOD OF PROVIDING OCULAR NEUROPROTECTION” (INOTEK PHARMACEUTICALS CORPORATION, priority 2013, published 2014)
One block for each compound: values may come before it.

Assays:
[1] = system: retinal ganglion cells; test: Ischemia-induced retinal ganglion cell death in Long-Evans rats (high IOP insult, histology); assay type: in vivo; conditions: topical; for percent of RGC protected from ischemic insult (FIG. 4): two drops before 60 min ischemia at 110 mmHg, Compound A 2.5% ophthalmic suspension or 0.2% brimonidine tartrate, histology at 7 days; for retinal thinning of inner retina (GCL, IPL) after high IOP (FIG. 2): versus healthy contralateral eye, 7 days
Method: Treatment groups of 10 male Long Evans rats, six to eight weeks of age, were anesthetized by i.p. injection of a combination of ketamine (80 mg/kg) and xylazine (8 mg/kg). Additional ketamine was administered as needed to maintain appropriate anesthetic depth, and body temperature was maintained by use of an isothermal pad placed under the animal. Once under anesthesia, topical anesthetic (0.5% proparacaine hydrochloride, single drop) was applied to the cornea of the right eye. […] Several minutes after the second treatment, the anterior chamber of the right eye was cannulated with a 30G needle connected to an elevated reservoir of sterile Hanks balanced salt solution with a fluid level 59 inches above eye level (equivalent to a hydrostatic pressure of 110 mmHg) behind a closed stopcock. Five minutes after the second treatment (fifteen minutes after application of topical anesthetic), the stopcock was opened, and the rise in pressure was directly visualized by inflation of the globe. Animals that suffered an injury to the iris or cornea (beyond the single entry point) were excluded from the study. Sixty minutes after inducing the rise in pressure, the ischemic injury was terminated by closing the stopcock and removing the cannula. The needle entry wound was sealed with veterinary tissue adhesive and the animals allowed to recover from anesthesia before being returned to housing.
Seven days after ischemic injury animals were sacrificed by CO2 inhalation and globes dissected with the proximal optic nerves intact. The anterior chamber was removed, and the eyes were fixed for 30 minutes in 4% paraformaldehyde/PBS, followed by overnight incubation in 30% sucrose. Fixed eyes were trimmed of additional connective tissue and cut along a sagittal plane to generate a flat face for embedding, and the exposed retinal edge was attached to the sclera with tissue adhesive. The eye was infiltrated with increasing strengths of JB-4 embedding medium (glycol methacrylate; GMA), followed by embedding in JB-4 at 4° C. for sagittal sectioning. Optic nerves were co-embedded with their paired retina for transverse sectioning. Embedded tissues were sectioned through or near the optic nerve head at a thickness of 2 μm, and collected on slides for further analysis.
For histological analysis of retinas, sections were stained with 1% toluidine blue in absolute ethanol for 40 seconds, and cover slipped for microscopic examination. Images were captured using cellSens Dimension software on an Olympus BX61 upright microscope with a motorized stage, using a 20× objective and a resolution of 169 nm/pixel, and stitched together using the multiple image alignment procedure of the software. Five locations were chosen at random from across the retina, avoiding areas of extreme curvature or extreme histological disruption, and the thickness of the retinal layers was assessed, as follows: ganglion cells (GCL; count of large, round nuclei in layer near retinal surface in 100 μm region centered on chosen location), inner plexiform layer (IPL; distance from nuclei in ganglion cell layer to nuclei in inner nuclear layer), inner nuclear layer (INL), outer plexiform layer (OPL; distance from nuclei in INL to nuclei in outer nuclear layer), outer nuclear layer (ONL), and total retinal thickness (TR distance from retinal surface above nerve fiber layer to edge of ONL). […]

[2] = target: T1, A2A adenosine receptor (Homo sapiens, UniProt P29274); test: Adenosine A2A receptor binding, A1 > A2A selectivity; conditions: ratio Ki A2A / Ki A1
T1 construct: expressed in transfected cells; host or cells: CHO cells

[3] = cited from earlier work; for study participants who discontinued the study due to adverse events: Low-Pressure Glaucoma Treatment Study
[4] = system: nerve fiber layer of the retina (RNFL); conditions: topical 0.2% solution, 12 months, compared to timolol; cited from earlier work
[5] = system: retinal ganglion cells; conditions: nerve crush, acute and chronic ocular hypertension models; cited from earlier work

T1 sequence (P29274 whole entry): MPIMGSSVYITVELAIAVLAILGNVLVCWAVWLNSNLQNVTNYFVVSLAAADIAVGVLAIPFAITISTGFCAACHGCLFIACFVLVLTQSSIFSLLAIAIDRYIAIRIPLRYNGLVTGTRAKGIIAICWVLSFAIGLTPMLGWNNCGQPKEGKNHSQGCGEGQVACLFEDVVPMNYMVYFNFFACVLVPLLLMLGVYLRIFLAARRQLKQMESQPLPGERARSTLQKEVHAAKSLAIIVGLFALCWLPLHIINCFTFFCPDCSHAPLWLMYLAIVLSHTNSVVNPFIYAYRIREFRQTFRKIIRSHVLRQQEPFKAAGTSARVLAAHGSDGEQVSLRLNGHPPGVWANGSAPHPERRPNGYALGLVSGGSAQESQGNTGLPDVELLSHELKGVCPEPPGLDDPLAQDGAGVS

SMILES: O=[N+]([O-])OC[C@H]1O[C@@H](n2cnc3c(NC4CCCC4)ncnc32)[C@H](O)[C@@H]1O [Compound A, ((2R,3S,4R,5R)-5-(6-(cyclopentylamino)-9H-purin-9-yl)-3,4-dihydroxytetrahydrofuran-2-yl)methyl nitrate]
percent of RGC protected from ischemic insult (FIG. 4) [1]: 100% | percentage of protection across retinal layers (FIG. 3) ([1]; two drops before ischemia, relative to vehicle and brimonidine): greater relative to the vehicle, and slightly greater than the effects of brimonidine | retinal thinning of inner retina (GCL, IPL) after high IOP (FIG. 2) ([1]; two drops before ischemia): blocked

A1 > A2A SELECTIVITY [KiA2(nm)/KiA1(nm)] [2]: >9434
SMILES: O=[N+]([O-])OC[C@H]1O[C@@H](n2cnc3c(NC4CCOC4)ncnc32)[C@H](O)[C@@H]1O (stereo partly drawn) [Compound D, ((2R,3S,4R,5R)-3,4-dihydroxy-5-(6-(tetrahydrofuran-3-ylamino)-9H-purin-9-yl)tetrahydrofuran-2-yl)methyl nitrate]

SMILES: Brc1c(NC2=NCCN2)ccc2nccnc12 [brimonidine]
loss of visual field ([3]; 0.2% brimonidine, mean 30.0 month follow up, low pressure glaucoma, compared to timolol control): slow the loss of visual field | study participants who discontinued the study due to adverse events [3]: 28.3% | loss in thickness of the nerve fiber layer of the retina (RNFL) [4]: reduce the loss in thickness of the nerve fiber layer of the retina | percent of RGC protected from ischemic insult (FIG. 4) [1]: around 80% | retinal thinning of inner retina (GCL, IPL) after high IOP (FIG. 2) ([1]; two drops before ischemia): blocked | RGC survival [5]: improved RGC survival

SMILES: CC(C)(C)NC[C@H](O)COc1nsnc1N1CCOCC1 [timolol]
study participants who discontinued the study due to adverse events [3]: 11.4%
